The text below walks through data of patent US20060148858A1, “1, 2-Azole derivatives with hypoglycemic and hypolipidemic activity” (priority 2002, published 2006).

As usually defined, the melting point is the temperature, or range, at which the solid turns liquid.

Each structure is given as a SMILES string.

Regarding `CCc1cccc(CC(=O)O)c1OCCCc1cn(-c2ccc(C(F)(F)F)cn2)nc1C(C)(C)C` [Example 347, [2-(3-{3-tert-butyl-1-[5-(trifluoromethyl)-2-pyridinyl]-1H-pyrazol-4-yl}propoxy)-3-ethylphenyl]acetic acid], the melting point lay in the range of 98 to 99 °C.

`Cc1nn(-c2ccc(C(F)(F)F)cn2)cc1COc1cc(/C=C/C(=O)O)n(C)n1` [Example 37, (E)-3-(1-methyl-3-{3-methyl-1-[5-(trifluoromethyl)-2-pyridyl]-1H-pyrazol-4-ylmethoxy}-1H-pyrazol-5-yl)propenoic acid] had a melting point of 208 to 209 °C.

In turn, `Cc1cnn(CC(=O)O)c1OCCCc1cn(-c2ccc(C(F)(F)F)cn2)nc1C(C)C` [Example 327, [5-(3-{3-isopropyl-1-[5-(trifluoromethyl)-2-pyridinyl]-1H-pyrazol-4-yl}propoxy)-4-methyl-1H-pyrazol-1-yl]acetic acid] had a melting point of 123 to 124 °C.

In turn, `O=C(O)Cc1cccc(OCCCc2cc(-c3ccc(C(F)(F)F)cc3)no2)c1` [Example 3, [3-(3-{3-[4-(trifluoromethyl)phenyl]-5-isoxazolyl}propoxy)phenyl]acetic acid] showed a melting point of 126 to 127 °C.

As to `COc1cccc(CC(=O)O)c1OCCCc1cn(-c2cccc(C(F)(F)F)n2)nc1C(C)C` [Example 365, [2-(3-{3-isopropyl-1-[6-(trifluoromethyl)-2-pyridinyl]-1H-pyrazol-4-yl}propoxy)-3-methoxyphenyl]acetic acid], the melting point is 95 to 97 °C.

The compound `O=C(O)Cc1ccccc1OCCCCc1cc(-c2ccc(C(F)(F)F)cc2)no1` [Example 17, [2-(4-{3-[4-(trifluoromethyl)phenyl]-5-isoxazolyl}butoxy)phenyl]acetic acid] had a melting point of 122 to 123 °C.

`CCCCc1nn(-c2ccc(C(F)(F)F)cn2)cc1CCCOc1nn(C)cc1CC(=O)O` [Example 199, [3-(3-{3-butyl-1-[5-(trifluoromethyl)-2-pyridyl]-1H-pyrazol-4-yl}propoxy)-1-methyl-1H-pyrazol-4-yl]acetic acid]: the melting point lay within 125 to 126 °C.

In turn, `COc1cccc(CC(=O)O)c1OCCCc1cn(-c2nnc(C(F)(F)F)s2)nc1C(C)C` [Example 194, [3-methoxy-2-(3-{3-(1-methylethyl)-1-[5-(trifluoromethyl)-1,3,4-thiadiazole-2-yl]-1H-pyrazol-4-yl}propoxy)phenyl]acetic acid] displayed a melting point of 144 to 145 °C.

Take `Cc1cccc(CC(=O)O)c1OCCCc1cn(-c2ccc(C(F)(F)F)cn2)nc1C(C)(C)C` [Example 346, [2-(3-{3-tert-butyl-1-[5-(trifluoromethyl)-2-pyridinyl]-1H-pyrazol-4-yl}propoxy)-3-methylphenyl]acetic acid]: the melting point was in the range of 86 to 87 °C.

For `CCCc1cn(CC(=O)O)nc1OCCCc1cn(-c2ccc(C(F)(F)F)cn2)nc1CCC` [Example 254, [4-propyl-3-(3-{3-propyl-1-[5-(trifluoromethyl)-2-pyridyl]-1H-pyrazol-4-yl}propoxy)-1H-pyrazol-1-yl]acetic acid], the melting point was 138 to 139 °C.

Compound `CCOc1nn(-c2ccccn2)cc1CCCOc1cc(CCC(=O)O)n(-c2ccccc2)n1` [Example 103, 3-(3-{3-[3-ethoxy-1-(2-pyridinyl)-1H-pyrazol-4-yl]propoxy}-1-phenyl-1H-pyrazol-5-yl)propanoic acid] registered a melting point of 156 to 157 °C.

As for `O=C(O)Cc1ccccc1OCCCc1cn(-c2ccc(C(F)(F)F)cn2)nc1-c1ccccc1` [Example 134, [2-(3-{3-phenyl-1-[5-(trifluoromethyl)-2-pyridyl]-1H-pyrazol-4-yl}propoxy)phenyl]acetic acid], the melting point is 133 to 134 °C.

Compound `Cc1nn(-c2ccc(C(F)(F)F)cn2)cc1CCCOc1cccc(OC(C)(C)C(=O)O)c1` [Example 130, 2-methyl-2-[3-(3-{3-methyl-1-[5-(trifluoromethyl)-2-pyridyl]-1H-pyrazol-4-yl}propoxy)phenoxy]propionic acid] had a melting point of 107 to 108 °C.

The compound `CC(C)c1nn(-c2ccc(C(F)(F)F)cn2)cc1CCCCOc1ccc(CC(=O)O)cc1` [Example 53, [4-(4-{3-isopropyl-1-[5-(trifluoromethyl)-2-pyridinyl]-1H-pyrazol-4-yl}butoxy)phenyl]acetic acid] registered a melting point of 130 to 131 °C.

`CCCc1nn(-c2ccc(C(F)(F)F)cn2)cc1COc1ccc(CCC(=O)O)c(C)c1` [Example 121, 3-[2-methyl-4-({3-propyl-1-[5-(trifluoromethyl)-2-pyridyl]-1H-pyrazol-4-yl}methoxy)phenyl]propionic acid] had a melting point of 129 to 130 °C.

As for `CCCc1nn(-c2ccc(C(F)(F)F)cn2)cc1CCCCOc1ccc(CCC(=O)O)c(OC)c1` [Example 89, 3-[2-methoxy-4-(4-{3-propyl-1-[5-(trifluoromethyl)-2-pyridyl]-1H-pyrazol-4-yl}butoxy)phenyl]propionic acid], the melting point was in the range of 91 to 92 °C.

The compound `Cc1nn(-c2ccc(C(F)(F)F)cn2)cc1CCCOc1cc(CC(=O)O)n(C)n1` [Example 283, [1-methyl-3-(3-{3-methyl-1-[5-(trifluoromethyl)-2-pyridinyl]-1H-pyrazol-4-yl}propoxy)-1H-pyrazol-5-yl]acetic acid] returned a melting point of 143 to 144 °C.

In the case of `Cc1nn(-c2ccc(C(F)(F)F)cn2)cc1COc1cccc(CC(=O)O)c1` [Example 149, [3-({3-methyl-1-[5-(trifluoromethyl)-2-pyridyl]-1H-pyrazol-4-yl}methoxy)phenyl]acetic acid], the melting point fell in the range of 142 to 143 °C.

`CCOc1nn(-c2cc(C(F)(F)F)ccn2)cc1CCCOc1cccc(OC(C)(C)C(=O)O)c1` [Example 289, 2-[3-(3-{3-ethoxy-1-[4-(trifluoromethyl)-2-pyridinyl]-1H-pyrazol-4-yl}propoxy)phenoxy]-2-methylpropanoic acid] registered a melting point of 98 to 99 °C.

With `CCC(C)c1nn(-c2ccc(C(F)(F)F)cn2)cc1CCCOc1c(C)cccc1CC(=O)O` (stereo not drawn) [Example 219, [3-methyl-2-(3-{3-(1-methylpropyl)-1-[5-(trifluoromethyl)-2-pyridyl]-1H-pyrazol-4-yl}propoxy)phenyl]acetic acid], the melting point was in the range of 134 to 135 °C.

Compound `CCCc1nn(-c2ccc(C(F)(F)F)cn2)cc1COc1ccc(CCC(=O)O)c(OC)c1` [Example 120, 3-[2-methoxy-4-({3-propyl-1-[5-(trifluoromethyl)-2-pyridyl]-1H-pyrazol-4-yl}methoxy)phenyl]propionic acid] registered a melting point of 153 to 154 °C.

`O=C(O)c1ccc(OCCCc2cc(-c3ccc(C(F)(F)F)cc3)no2)cc1` [Example 2, 4-(3-{3-[4-(trifluoromethyl)phenyl]-5-isoxazolyl}propoxy)benzoic acid]: the melting point fell in the range of 221 to 222 °C.

For the compound `CCCc1nn(-c2ccc(C(F)(F)F)cn2)cc1CCCCOc1ccc(CC(=O)O)cc1` [Example 88, [4-(4-{3-propyl-1-[5-(trifluoromethyl)-2-pyridyl]-1H-pyrazol-4-yl}butoxy)phenyl]acetic acid], the melting point was 121 to 122 °C.

In turn, `CCCc1nn(-c2ccc(C(F)(F)F)cn2)cc1CCCOc1cc(CCC(=O)O)ccc1OC` [Example 93, 3-[4-methoxy-3-(3-{3-propyl-1-[5-(trifluoromethyl)-2-pyridyl]-1H-pyrazol-4-yl}propoxy)phenyl]propionic acid] returned a melting point of 147 to 148 °C.

`CCCc1nn(-c2ccc(C(F)(F)F)cn2)cc1CCCCOc1nn(C)cc1CC(=O)O` [Example 61, [1-methyl-3-(4-{3-propyl-1-[5-(trifluoromethyl)-2-pyridinyl]-1H-pyrazol-4-yl}butoxy)-1H-pyrazol-4-yl]acetic acid] had a melting point of 95 to 97 °C.

The compound `CCOc1nn(-c2ccc(C(F)(F)F)cn2)cc1CCCOc1cc(CCC(=O)O)n(C2CCCCC2)n1` [Example 257, 3-[1-cyclohexyl-3-(3-{3-ethoxy-1-[5-(trifluoromethyl)-2-pyridyl]-1H-pyrazol-4-yl}propoxy)-1H-pyrazol-5-yl]propanoic acid] came in with a melting point of 89 to 90 °C.

Regarding `CCc1cccc(CC(=O)O)c1OCCCc1cn(-c2ncc(C(F)(F)F)cc2Cl)nc1C(C)C` [Example 249, [2-(3-{1-[3-chloro-5-(trifluoromethyl)-2-pyridinyl]-3-isopropyl-1H-pyrazol-4-yl}propoxy)-3-ethylphenyl]acetic acid], the melting point fell in the range of 93 to 95 °C.

`CCOc1nn(-c2ccc(C(F)(F)F)cn2)cc1CCCOc1nn(C)cc1CC(=O)O` [Example 135, [3-(3-{3-ethoxy-1-[5-(trifluoromethyl)-2-pyridyl]-1H-pyrazol-4-yl}propoxy)-1-methyl-1H-pyrazol-4-yl]acetic acid] returned a melting point of 115 to 116 °C.

`CCOc1nn(-c2ccc(C(F)(F)F)cn2)cc1CCCOc1cccc(CCC(=O)O)c1` [Example 33, 3-[3-(3-{3-ethoxy-1-[5-(trifluoromethyl)-2-pyridyl]-1H-pyrazol-4-yl}propoxy)phenyl]propionic acid] yielded a melting point of 88 to 89 °C.

`CCOc1nn(-c2ccc(C(F)(F)F)cn2)cc1CCCOc1cc(OC)ccc1CC(=O)O` [Example 142, [2-(3-{3-ethoxy-1-[5-(trifluoromethyl)-2-pyridyl]-1H-pyrazol-4-yl}propoxy)-4-methoxyphenyl]acetic acid] showed a melting point of 147 to 148 °C.

In turn, `COc1cccc(CCC(=O)O)c1OCCCc1cn(-c2ccc(C(F)(F)F)cn2)nc1C(C)C` [Example 323, 3-[2-(3-{3-isopropyl-1-[5-(trifluoromethyl)-2-pyridinyl]-1H-pyrazol-4-yl}propoxy)-3-methoxyphenyl]propanoic acid] gave a melting point of 112 to 113 °C.

In turn, `CCCc1nn(-c2ccc(C(F)(F)F)cn2)cc1CCCOc1c(CC(=O)O)cnn1CC` [Example 326, [1-ethyl-5-(3-{3-propyl-1-[5-(trifluoromethyl)-2-pyridinyl]-1H-pyrazol-4-yl}propoxy)-1H-pyrazol-4-yl]acetic acid] came in with a melting point of 125 to 126 °C.

With `Cc1nn(-c2ccc(C(F)(F)F)cn2)cc1CCCOc1ccccc1CC(=O)O` [Example 141, [2-(3-{3-methyl-1-[5-(trifluoromethyl)-2-pyridyl]-1H-pyrazol-4-yl}propoxy)phenyl]acetic acid], the melting point was 128 to 129 °C.
